Measured values reported in paper PMC4981850 (Scientific Reports, 2016).

Columns and labels:
[1] = molecular target: T1, hDAT (human dopamine transporter) (Homo sapiens, UniProt Q01959); experiment: two-electrode voltage clamp (-60 mV), Xenopus oocytes expressing hDAT, inward current; format: cell-based
T1 construct: gene SLC6A3

[2] = molecular target: T1, hDAT (human dopamine transporter); experiment: two-electrode voltage clamp (-60 mV), Xenopus oocytes expressing hDAT, block of transporter leak current; format: cell-based

T1 sequence (Q01959 whole entry): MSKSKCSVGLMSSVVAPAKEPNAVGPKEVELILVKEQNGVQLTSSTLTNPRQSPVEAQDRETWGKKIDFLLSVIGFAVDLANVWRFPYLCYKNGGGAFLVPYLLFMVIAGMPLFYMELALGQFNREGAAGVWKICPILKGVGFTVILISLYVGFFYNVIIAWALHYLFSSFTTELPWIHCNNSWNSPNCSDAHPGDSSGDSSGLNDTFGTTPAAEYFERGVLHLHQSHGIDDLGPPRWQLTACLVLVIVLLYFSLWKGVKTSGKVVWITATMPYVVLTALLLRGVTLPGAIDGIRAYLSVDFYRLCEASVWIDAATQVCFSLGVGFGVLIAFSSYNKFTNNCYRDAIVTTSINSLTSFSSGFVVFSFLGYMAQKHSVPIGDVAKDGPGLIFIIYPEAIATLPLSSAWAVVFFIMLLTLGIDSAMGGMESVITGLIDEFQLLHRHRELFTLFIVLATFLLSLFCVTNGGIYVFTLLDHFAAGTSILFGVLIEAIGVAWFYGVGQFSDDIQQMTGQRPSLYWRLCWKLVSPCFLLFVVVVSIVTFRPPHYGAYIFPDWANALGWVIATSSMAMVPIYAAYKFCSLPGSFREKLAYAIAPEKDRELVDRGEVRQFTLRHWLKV

Compound | EC50 [1] [nM] | EC50 [2] [µM]
C[C@@H]1NCCO[C@H]1c1ccccc1 [2S,3S(+)-PM, (2S,3S)-(+)-3-Methyl-2-phenylmorpholine] | 750 ± 140 | 
C[C@@H]1[C@@H](c2ccccc2)OCCN1C [2R,3R(−)-PDM, (2R,3R)-(+)-3,4-Dimethyl-2-phenylmorpholine] |  | ~23.5
C[C@H]1[C@H](c2ccccc2)OCCN1C [2S,3S(+)-PDM, (2S,3S)-(+)-3,4-Dimethyl-2-phenylmorpholine] |  | 2.56 ± 0.82
C[C@H]1NCCO[C@@H]1c1ccccc1 [2R,3R(−)-PM, (2R,3R)-(+)-3-Methyl-2-phenylmorpholine] | 2630 ± 600 | 
